The values that follow come from US20030082229A1, “Parenteral chlorambucil for treatment of malignant and autoimmune disease and methods of use” (priority 2001, published 2003).

The structures appear in SMILES notation. “Also recorded” adds a separate entry of the source.

The test system of one data set is erythrocytes. Kind of data set: Hemolysis studies in vitro. In kind it is cell-based. Conditions: drug concentrations of 100 μg/ml or more. An excerpt:
The procedure of Parthasarathy et al. was used to examine the hemolytic potential of a few selected formulations of the present invention, and the LD50 (concentration that results in 50% lethality or destruction of a population) values of the most optimal formulation was constructed as previously described (Parthasarathy R, Sacks P G, Harris D, et al: Interaction of liposome-associated all-trans-retinoic acid with squamous carcinoma cells. CANCER CHEMOTHER. PHARMACOL. 34:527-34, 1994). Briefly, heparinized blood was mixed with an equal volume of Alsever's solution. This mixture was washed twice in phosphate-buffered saline (PBS), and a 10% (volume per volume, v/v) erythrocyte/PBS solution was then prepared and mixed with increasing amounts of the solvent (prototype EtOH/lipid solvent vehicle and NS) with or without addition of CLB. These resulting mixtures were incubated for 4 hours at 37° C. At the end of the incubation, the cells were pelleted at 10,000×g in an Eppendorf micro-centrifuge, and after washing twice in NS, the pellet was resuspended and lysed using distilled water. The release of hemoglobin in the supernatant (i.e., hemolysis) was determined spectrophotometrically at a wavelength of 550 nm. […]
The hemolytic potential of the formulations (EtOH/lipid/CLB/NS) were evaluated as described. […]

Data set [1] has as its system HL-60 human myeloid leukemia cell line. Briefly: In vitro clonogenic cytotoxicity assay, HL-60. Type of data set: cell-based. The note with it: acetone positive control. As for the experimental part: The cytotoxic potential of selected solvent systems with and without CLB was determined against the two human myeloid leukemia cell lines (HL-60) (Gallagher R. Collins S, Trujillo et al: Characterization of the continuously differentiating myeloid cell line (HL-60) from a patient with acute promyelocytic leukemia. BLOOD 54:254-68, 1979) and human myeloid leukemia cell line (KBM-7/B5) (Andersson B S, Beran M, Pathak S, et al: Ph-positive chronic leukemia with near-haploid conversion in vivo and establishment of a continuously growing cell line with similar cytogenetic pattern. CANCER GENETICS AND CYTOGENET 24:335-43, 1987; Andersson B S, Collins V P, Kurzrock R, et al: KBM-7; human myeloid leukemia cell line with double Philadelphia chromosomes but lacking normal BCR and c-ABL transcripts. LEUKEMIA, 9:2100-2108, 1995). Briefly, HL-60 or KBM-7/B5 cells were suspended at a density of 5,000 cells per ml in Iscove's modified Dulbecco medium (IMDM) supplemented with 20% fetal bovine serum (FBS) and 0.3% agar as viscous support. […] Clones of>50 cells were counted under an inverted phase contrast microscope, and survival curves were constructed as described (Andersson B S, Mroue M, Britten R A, Murray D: The role of DNA damage in the resistance of human chronic myeloid leukemia cells to cyclophosphamide analogs. CANCER RESEARCH 54:5394-5400, 1994).

The nature of data set [2]: IV CLB pharmacology in rats. In kind it is in vivo, Sprague-Dawley rats. The text has this: Male Sprague-Dawley rats with a body weight of 250-300 g were used for the in vivo pharmacology experiments (Harlan-Sprague-Dawley, Houston, Tex.). The animals were allowed a minimum of 3-4 days after arrival to accommodate to the new environment and allowed free access to commercial feed and tap water prior to and during the experimentation period. The animals were housed in facilities that meet the requirements of the U.S. Department of Agriculture, (USDA), National Institute of Health (NIH), and Department of Health and Human Services (DHHS).
The CLB dose of 5 mg/kg BW was determined to be the highest dose that could be administered to the rats as an IV bolus injection without requiring anticonvulsant premedication.
The CLB was formulated in EtOH/lipid (prototype EtOH/lipid solvent vehicle) to a stock concentration of 100 mg/ml and then diluted with NS so the dose (5.0 mg/kg) could be injected in a tail vein in a volume of approximately 0.5 ml. The CLB concentrations of the formulation were confirmed by HPLC prior to all administrations. No anticonvulsant premedication for the rats in this experiment was used in order to avoid the possible induction of microsomal liver enzymes that could modify CLB metabolism. The animals were unanesthetized, being only physically restrained during the drug injection for the same reason.
Blood samples (0.5-1.0 ml) were drawn in heparinized tubes at selected time points prior to the drug infusion (“blank”), and from 5 min to 6 hours after drug injection for determination of CLB concentrations. The samples were obtained through cardiac puncture under light CO2 anesthesia in the rats and through a prepositioned cephalic vein catheter in the dogs. The blood was centrifuged at 1,000×g for 10 min, and the plasma was removed and stored at−80° C. until extracted and assayed by HPLC.

The conditions of data set [3]: cited from earlier work.

For the compound `O=C(O)CCCc1ccc(N(CCCl)CCCl)cc1` [CLB, 4-[Bis(2-chloroethyl)amino]benzenebutanoic acid], the CLB-dependent lysis result in the data set on erythrocytes is on record as “barely exceeded background”. Besides, the “Cytotoxic activity in the formulation vs CLB dissolved in acetone, HL-60” value in data set [1] is “retained full cytotoxic activity”. For the same compound, the “CLB plasma concentrations after IV injection, rats” value in data set [2] (5 mg/kg BW IV) is recorded as “detectable, cytotoxic CLB plasma concentrations; also recorded: for several hours remained in the cytotoxic range; also recorded: maintained for several hours”. In addition, the “Tolerability of injection, rats” value in data set [2] (5.0 mg/kg BW IV) is recorded as “well tolerated; also recorded: well accepted”. For the same compound, in data set [2] (rats, IV bolus), the “Highest dose as IV bolus without requiring anticonvulsant premedication” value was determined as 5 mg/kg BW. Also, in data set [3] (oral, intermittent schedule, confusion, generalized seizures), the “Dose at which dose-limiting neurological toxicity is manifested” value is given as at least 100 mg/m^2 BSA. Further, the “Terminal half-life in blood” value in data set [3] (taken by mouth) is given as “approximately 60 minutes”.
